Columns and labels:
[1] = molecular target: human 20S proteasome ChT-L activity; details: read-out: IC50 ChT-L; 2 nM 20S, 30 min at 37°C, 100 µM substrate
[2] = molecular target: human 20S proteasome T-L activity; details: read-out: IC50 T-L; 2 nM 20S, 30 min at 37°C, 100 µM substrate
[3] = molecular target: human 20S proteasome PGPH-L activity; details: read-out: IC50 PGPH-L; 2 nM 20S, 30 min at 37°C, 100 µM substrate
[4] = system: T1, human 20S proteasome; parameters: method as in PMID 22642538; details: cited from earlier work
T1 construct: purchased Boston Biochem (Cambridge, MA, USA)

[5] = system: wild-type yeast 20S proteasome; test: Steady-state kinetic analysis (Lineweaver-Burk), Suc-LLVY-AMC; type: biochemical
Description: (§1) Proteasome activity assay.
(§2) Latent Core Particles (CP).
(§3) in a 384 multiwell black plate.
(§4) The IC50 is defined as the
(§5) double-reciprocal Lineweaver-Burk plot
(§6) squares. […] The goodness of fit was
(§7) [Etot ] = KI ⋅ 1 + 1 (S3a)
(§8) or an un-competitive inhibition equation:
(§9) [Etot ] = Km ⋅ 1 + KI (S3b)
(§10) or else a mixed inhibition equation: […]
(§11) different affinity for the two forms.
(§12) Cooperativity for Porphyrin Binding.
(§13) be described by Eq. (1b) 2 where Pc

[6] = system: α-3ΔN yeast mutant 20S; test: as above; type: biochemical; details: yeast mutant α-3ΔN (open conformation)
Description: as §1, §2, §3, §4, §5, §6, §7, §8, §9, §10, §11, §12, §13

[7] = system: wild-type yeast 20S proteasome; test: UV stopped-flow binding kinetics; details: first cluster, 37 °C
Description: (§14) The analysis of kinetic progress curves, employing Eq. (S8), allows to obtain the values of k obs at different porphyrin concentrations, which can be exploited, for a classical bimolecular behavior, to obtain the association and dissociation rate constants according to Eq. (1a)1a kobs=kon⋅[Porph]+koff […]
(§15) Therefore, the classical bimolecular behavior, as from Eq. (1a), has been modified accordingly:1b kobs=(kc⋅Pc/Ptot+ko⋅Po/Ptot)⋅[Porph]+koff where k c and k o are the porphyrin binding rate constants to the 20S proteasome in the “closed” and in the “open” conformation, respectively, k off is the dissociation rate constant of the porphyrin, P c and P o are the relative percentage of the two conformations (“closed” and “open”, respectively) as a function of porphyrin concentration, as from Eqs. (S4–S7) (see SI). […]
(§16) Cooperativity for Porphyrin Binding. In the presence of (at least) two states (i.e., “open” and […]
(§17) corresponds to the population of “closed” 20S as a function of porphyrin concentration (with Kc being the porphyrin equilibrium binding constant for this conformation) and Po […]
(§18) Refers to the population of “open” 20S as a function of porphyrin concentration, Ko being the equilibrium porphyrin binding constant and L is the conformationa l equilibrium between the two states in the absence of porphyrins, as from Eq. (S6)

[8] = system: α-3ΔN mutant of yeast 20S proteasome; test: UV stopped-flow binding kinetics; details: simple bimolecular binding, 37 °C
Description: as §14, §15, §16, §17, §18

Row | SMILES | IC50 [1] [nM] | IC50 [2] [nM] | IC50 [3] [nM] | inhibition mechanism [4] | inhibition mechanism [5] | inhibition mechanism [6] | L, open/closed conformational equilibrium in the absence of porphyrins [7] | kc, binding rate constant, closed conformation [7] [M⁻¹ s⁻¹] | ko, binding rate constant, open conformation [7] [M⁻¹ s⁻¹] | ko, binding rate constant [8] [M⁻¹ s⁻¹]
1 | C[n+]1ccc(-c2c3nc(c(-c4cc[n+](C)cc4)c4ccc([nH]4)c(-c4cc[n+](C)cc4)c4nc(c(-c5cc[n+](C)cc5)c5ccc2[nH]5)C=C4)C=C3)cc1 [compound 1, meso-tetrakis(4-N-methylpyridyl) porphyrin] | 393 | 640 | 140 | competitive and reversible inhibitor |  |  |  |  |  | 
2 | C[n+]1ccc(-c2ccc(-c3c4nc(c(-c5ccc(-c6cc[n+](C)cc6)cc5)c5ccc([nH]5)c(-c5ccc(-c6cc[n+](C)cc6)cc5)c5nc(c(-c6ccc(-c7cc[n+](C)cc7)cc6)c6ccc3[nH]6)C=C5)C=C4)cc2)cc1 [compound 2, meso-tetrakis(4-N-methylphenylpyridyl)-porphyrin] |  |  |  |  | almost pure non-competitive | competitive inhibitor | 4.0 × 10^−6 | 130 | 7e+06 | 2.5e+06

— paper PMC5719074, “Electrostatic Map Of Proteasome α-Rings Encodes The Design of Allosteric Porphyrin-Based Inhibitors Able To Affect 20S Conformation By Cooperative Binding” (Scientific Reports, 2017)
